# Source: publication PMC9454848, “BMS-986158, a Small Molecule Inhibitor of the Bromodomain and Extraterminal Domain Proteins, in Patients with Selected Advanced Solid Tumors: Results from a Phase 1/2a Trial” (Cancers, 2022)
# Tested on: BET-regulated genes
# Test: Transcriptional changes in matched pre- and on-treatment samples
# Format: in vivo, human
# Settings: of >18,000 genes measured; Benjamini–Hochberg–adjusted p < 0.05; 41 patients
# Description: Summary changes from baseline in the expression of BET-regulated genes were assessed in tumor tissues and blood collected at baseline and multiple on-treatment time points after BMS-986158 administration following the 3 dosing schedules. The study also assessed summary percent changes from baseline in expression of BET-regulated genes in peripheral blood and tumors (such as HEXIM1 and C-MYC). Tissue and peripheral blood samples (at baseline and on treatment) were collected for genomic, transcriptomic, and epigenetic analyses (by DNA or mRNA) to assess pharmacodynamic changes in BET-regulated genes. These samples were analyzed using whole-exome sequencing, real-time quantitative polymerase chain reaction, and RNA-sequencing methods.
# All treated patients with available biomarker measurements at baseline and ≥1 time point were included in the biomarker analyses. Blood and tumor tissue samples were collected at baseline, during treatment, and at end of treatment for biomarker analysis. Markers of selected BET-regulated genes (e.g., HEXIM1) were analyzed with summary statistics for percent changes in expression from available matched pre- and on-treatment samples over time relative to baseline. Statistically significant changes in gene expression were determined using the Benjamini–Hochberg procedure to calculate an adjusted p value with an α level of 0.05.
smiles,measurement,value
Cc1nnn(C)c1-c1cnc2c3ccc(C(C)(C)O)cc3n([C@H](c3ccccc3)C3CCOCC3)c2c1 [BMS-986158],Genes with significant changes in expression,4500
